Test results reported in patent US20230265069A1, “Small Molecule Inhibitors That Block the Budding of Enveloped Viruses” (priority 2020, published 2023).

Tests used:
[1] = test system: Vero cells; assay: Vero cell viability, 96 AQueous One Solution cell proliferation assay; type: cell-based
Excerpt: Drug potency and cell toxicity. […] Cell toxicity experiments were repeated twice.

[2] = test system: HIV-1; details: 293T cells in culture; cited from earlier work
[3] = biological target: ENO1 (Homo sapiens, UniProt P06733); assay: FTS assay on unrelated protein ENO1; details: specificity control
ENO1, sequence (P06733 whole entry): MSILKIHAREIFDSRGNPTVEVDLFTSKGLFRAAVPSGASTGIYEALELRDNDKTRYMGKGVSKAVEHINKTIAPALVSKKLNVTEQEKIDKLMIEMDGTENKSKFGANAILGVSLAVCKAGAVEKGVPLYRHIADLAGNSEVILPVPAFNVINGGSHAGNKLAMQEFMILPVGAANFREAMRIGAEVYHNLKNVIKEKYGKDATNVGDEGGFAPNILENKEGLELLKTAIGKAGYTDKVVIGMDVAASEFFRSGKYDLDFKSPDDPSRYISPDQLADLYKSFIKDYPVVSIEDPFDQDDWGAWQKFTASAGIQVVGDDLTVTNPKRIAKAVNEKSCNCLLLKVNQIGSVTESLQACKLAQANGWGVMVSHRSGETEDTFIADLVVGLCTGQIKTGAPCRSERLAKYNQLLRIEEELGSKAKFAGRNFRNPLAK
Excerpt: (§1) Fluorescence thermal shift (FTS) screening to identify small molecule binding to Tsg101-UEV. FTS using thermal shift elicited by the small molecule binding effect to protein stability. FTS monitors protein thermal denaturation using environment-sensitive dye Sypro® Orange which fluoresces when bound to hydrophobic surfaces, taking advantage of the changes in hydrophobic surface exposure in protein denaturation. Discovery of small molecule binding to target protein utilizes the observation that ligand binding affects protein thermal stability, and therefore can be detected through a shift in the protein's thermal denaturation (melting) temperature (Tm). We have employed FTS to reveal changes in thermodynamic properties of Tsg101 elicited by its interaction with a small molecule. The recombinant Tsg101 fragment (amino acids 1-145), prepared as described above in Materials and Methods (but without label) has a thermal unfolding profile suitable for using FTS as a primary screen assay in HTS. A fluorescence dye Sypro® Orange (Invitrogen) was used for assay detection. The dye is excited at 473 nm and has a fluorescence emission at 610 nm. The dye binds to hydrophobic regions of a protein that are normally buried in a native protein structure. […] Fluorescence was detected on a real-time PCR machine CFX384 (Bio-Rad Laboratories).

[4] = test system: DHPH; assay: FTS assay on unrelated protein DHPH; details: specificity control
Excerpt: as §1

[5] = test system: HSV-2; assay: HSV-2 release from infected Vero cells, plaque assay; details: for Titer of HSV-2 Media 48 h / Titer of HSV-2 Media, 24 h / Total Titer HSV-2 Media + Cell Lysate, 24 h: Vero cells
[6] = biological target: T1, MEK4 (Homo sapiens, UniProt P45985); assay: FTS assay on unrelated protein MEK4; details: specificity control
T1 sequence (P45985 1-399): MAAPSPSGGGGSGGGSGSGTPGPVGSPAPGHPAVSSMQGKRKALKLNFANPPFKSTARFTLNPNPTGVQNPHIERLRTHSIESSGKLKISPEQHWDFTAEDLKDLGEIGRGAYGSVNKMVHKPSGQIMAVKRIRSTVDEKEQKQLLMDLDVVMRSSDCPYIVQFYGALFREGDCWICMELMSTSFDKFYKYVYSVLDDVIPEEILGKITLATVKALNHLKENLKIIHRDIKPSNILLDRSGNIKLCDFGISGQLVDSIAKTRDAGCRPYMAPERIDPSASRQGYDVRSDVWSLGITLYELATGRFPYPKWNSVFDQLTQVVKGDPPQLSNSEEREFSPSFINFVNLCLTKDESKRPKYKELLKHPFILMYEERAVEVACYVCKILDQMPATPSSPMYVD
Excerpt: as §1

[7] = biological target: T2, Tsg101-UEV (Tsg101 amino acids 1-145) (Homo sapiens, UniProt Q99816); assay: Fluorescence thermal shift (FTS) assay, binding to Tsg101-UEV
T2 sequence (Q99816 1-145): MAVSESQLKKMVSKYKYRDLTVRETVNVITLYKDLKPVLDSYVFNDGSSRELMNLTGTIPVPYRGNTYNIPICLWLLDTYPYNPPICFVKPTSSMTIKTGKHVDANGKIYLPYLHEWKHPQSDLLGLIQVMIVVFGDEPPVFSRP
Description: The fluorescence-based thermal shift assay is based on the observation that a protein unfolds upon heating, exposing the hydrophobic residues within its tertiary structure. The unfolding temperature (Tm) is determined by the protein's primary sequence and solution environment. The FTS assay uses a fluorescent dye sensitive to a hydrophobic environment to probe protein stability and its modulation by small molecule ligands. The dye has a low fluorescence quantum yield when in a polar environment. Once in contact with the hydrophobic core normally buried within a folded protein that has become exposed during the thermal unfolding (melting) process, the quantum yield of the dye increases, thus providing a reporting signal. Furthermore, a protein's stability can be affected by ligand binding, resulting in an increase or decrease in its melting temperature. FTS assay uses the Tm shift upon binding of a ligand to identify hit compounds for drug discovery.
We screened chemical compounds using a fluorescence thermal shift (FTS) assay (27, 28) to identify small molecules that bind directly to a truncated form of Tsg101 (amino acids 1-145) which contains the Ubiquitin E2 variant (UEV) ubiquitin-binding domain (FIG. 1A, 1B, 1C). […] This truncated Tsg101, called Tsg101-UEV, was used because full-length Tsg101 has significant solubility issues in aqueous solution. Tsg101 is an adaptor protein and thus lacks a readily deployable functional assay, making FTS a tractable approach to identify interacting compounds. FTS monitors protein thermal denaturation using SYPRO® Orange, a dye which fluoresces when bound to hydrophobic surfaces, which allows monitoring of the changes in hydrophobic surface exposure during protein denaturation (27). Since ligand binding affects protein thermal stability, it can be detected through modulation of protein thermal denaturation (melting) as a shift in melting temperature (Tm). Tsg101-UEV has a well-defined melting curve suitable for FTS. We used the FTS assay to identify compounds that bind to Tsg101-UEV.
Fluorescence thermal shift (FTS) screening to identify small molecule binding to Tsg101-UEV. FTS using thermal shift elicited by the small molecule binding effect to protein stability. FTS monitors protein thermal denaturation using environment-sensitive dye Sypro® Orange which fluoresces when bound to hydrophobic surfaces, taking advantage of the changes in hydrophobic surface exposure in protein denaturation. Discovery of small molecule binding to target protein utilizes the observation that ligand binding affects protein thermal stability, and therefore can be detected through a shift in the protein's thermal denaturation (melting) temperature (Tm). We have employed FTS to reveal changes in thermodynamic properties of Tsg101 elicited by its interaction with a small molecule. […] A fluorescence dye Sypro® Orange (Invitrogen) was used for assay detection. The dye is excited at 473 nm and has a fluorescence emission at 610 nm. The dye binds to hydrophobic regions of a protein that are normally buried in a native protein structure. […] The Tsg101 fragment was premixed at a concentration of 2 μM with a 5× concentration of Sypro® Orange in HEPES buffer (100 mM HEPES, 150 mM NaCl, pH 7.5). Then 10 μl of the protein-dye mix was added to an assay plate and 10 to 50 nanoliters of compound, equal to 10 to 50 μM, were added with an acoustic transfer robot Echo550 (Labcyte, CA).

[8] = test system: HSV-2; assay: Transmission electron microscopy of HSV-2 infected Vero cells, particle counts; details: 105 tenatoprazole, 24 h, HSV-2, 80 cells
Description: Vero cells grown on glass cover slips were infected with HSV-2 at MOI of 0.1 pfu/cell for 2 h and then treated for 24 h with 105 μM tenatoprazole or vehicle control.
Transmission electron Microscopy. Vero cells on glass cover slips were infected with HSV-2 at a MOI of 0.1 for two hours. Then 105 μM of tenatoprazole or 18 μM Ilaprazole was added and cells incubated for 24 hours. Tissue samples were fixed in 0.1 M sodium cacodylate buffer pH 7.3 containing 2% paraformaldehyde and 2.5% glutaraldehyde and post-fixed with 2% osmium tetroxide 427 in unbuffered aqueous solution. The samples were rinsed with distilled water, en bloc stained with 3% uranyl acetate, rinsed with distilled water, dehydrated in ascending grades of ethanol, transitioned with propylene oxide, embedded in the resin mixture of Embed 812 kit and cured in a 60° C. oven. Samples were sectioned on a Leica Ultracut UC6 ultramicrotome. 1 μm thick sections were collected and stained with Toluidine Blue O and 70 nm sections were collected on 200 mesh copper grids; thin sections were stained with uranyl acetate and Reynolds lead citrate. Transmission electron microscopy (TEM) was performed on a FEI Tecnai Spirit G2.

[9] = test system: HSV-1; assay: HSV-1 release from infected Vero cells, plaque assay
[10] = Tenatoprazole 52 μM, Vero cells
[11] = Tenatoprazole 79 μM, Vero cells
[12] = Tenatoprazole 105 μM, Vero cells
[13] = Tenatoprazole 131 μM, Vero cells
[14] = Tenatoprazole 157 μM, Vero cells

## Tenatoprazole
[1]; 24 h, result in words
  Cell toxicity at concentrations that block virus release: nontoxic
[1]; Tenatoprazole 52 μM
  Viability of OD 490 nm, 24 h: 1.724
[1]; Tenatoprazole 60 μM
  Viability of OD 490 nm, 24 h: 1.759
[1]; Tenatoprazole 79 μM
  Viability of OD 490 nm, 24 h: 1.742
[1]; Tenatoprazole 105 μM
  Viability of OD 490 nm, 24 h: 1.777
[1]; Tenatoprazole 131 μM
  Viability of OD 490 nm, 24 h: 1.714
[1]; Tenatoprazole 200 μM
  Viability of OD 490 nm, 24 h: 0.872
[2]
  Inhibition of release of infectious HIV-1 from 293T cells (earlier report): quantitatively inhibit
[3]
  Tm shift of ENO1: did not observe a Tm shift
[4]
  Tm shift of DHPH: did not observe a Tm shift
[5]; Tenatoprazole 52 μM
  Titer of HSV-2 Media 48 h: 1.30E+06
  Titer of HSV-2 Media, 24 h: 6.50E+04
  Total Titer HSV-2 Media + Cell Lysate, 24 h: 4.00E+06
[5]; Tenatoprazole 60 μM
  Titer of HSV-2 Media 48 h: 5.60E+04
  Titer of HSV-2 Media, 24 h: 1.00E+03
  Total Titer HSV-2 Media + Cell Lysate, 24 h: 2.30E+04
[5]; Tenatoprazole 79 μM
  Titer of HSV-2 Media 48 h: 4.80E+03
  Titer of HSV-2 Media, 24 h: 2.50E+02
  Total Titer HSV-2 Media + Cell Lysate, 24 h: 1.50E+03
[5]; Tenatoprazole 105 μM
  Titer of HSV-2 Media 48 h: 1.80E+02
  Titer of HSV-2 Media, 24 h: 0.00E+00
  Total Titer HSV-2 Media + Cell Lysate, 24 h: 6.00E+02
[5]; Tenatoprazole 131 μM
  Titer of HSV-2 Media, 24 h: 0.00E+00
  Total Titer HSV-2 Media + Cell Lysate, 24 h: 3.00E+02
[5]; read-out: EC50 (μM) Inhibition of HSV-2 Budding at 24 h, HSV-2 infected Vero cells, virus released into media, plaque assay
  EC50: 84 µM
[6]
  Tm shift of MEK4: did not observe a Tm shift
[7]; FTS dose response, result in words
  Thermal shift (Tm shift) of Tsg101-UEV caused by compound: dose-dependent shift in the Tm
[7]; with reducing agent DTT
  Tm shift of Tsg101 in the FTS assay on addition of DTT: abolishes the Tm shift
[8]
  Average number of virus particles in the nucleus: 31 particles
  Virus particles in the cytoplasm: did not detect virus particles
[9]; [10]
  Titer of HSV-1 Media, 48 H: 1.4E+07
  Titer of HSV-1 Media, 24 h: 2.90E+05
[9]; [11]
  Titer of HSV-1 Media, 48 H: 8.0E+06
  Titer of HSV-1 Media, 24 h: 1.30E+05
[9]; [12]
  Titer of HSV-1 Media, 48 H: 5.3E+05
  Titer of HSV-1 Media, 24 h: 5.40E+04
[9]; [13]
  Titer of HSV-1 Media, 48 H: 3.5E+04
  Titer of HSV-1 Media, 24 h: 2.40E+03
[9]; [14]
  Titer of HSV-1 Media, 48 H: 1.0E+02
  Titer of HSV-1 Media, 24 h: 1.30E+02
[9]; Vero cells, 24 hours after infection
  Drop of HSV-1 in released infectious virus: 3 log
[9]; against either virus (HSV-1, HSV-2), data not shown
  Duration of inhibition of virus release: began to fall off after 48 h
[9]; read-out: EC50, inhibition of HSV-1 release, Vero cells, 24 h, range stated jointly for HSV-1 and HSV-2
  EC50: 48 to 80 µM
